Test results taken from publication PMC11968987 (Nature Communications, 2025).

Biological target: SAT1 (flag-tagged recombinant SAT1) (Homo sapiens, UniProt P21673)
Assay: DTNB-coupled SAT1 activity assay, Lineweaver-Burk plot
Assay type: biochemical
Details: co-substrate histone H3 (200 ng); pH 8.0, 35 °C; no ginkgolide B

Chain of SAT1 (flag-tagged recombinant SAT1) (P21673 whole entry): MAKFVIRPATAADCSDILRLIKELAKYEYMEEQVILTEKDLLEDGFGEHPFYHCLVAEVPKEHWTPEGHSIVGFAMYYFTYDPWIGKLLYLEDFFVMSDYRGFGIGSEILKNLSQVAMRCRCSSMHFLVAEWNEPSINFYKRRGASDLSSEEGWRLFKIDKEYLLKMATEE

Question: For `CC(=O)SCCNC(=O)CCNC(=O)[C@H](O)C(C)(C)COP(=O)(O)OP(=O)(O)OC[C@H]1O[C@@H](n2cnc3c(N)ncnc32)[C@H](O)[C@@H]1OP(=O)(O)O` [acetyl-CoA], which km is on record?
Answer: Both the Vmax and km values decreased with the addition of GB
